In patent publication US5211945A, “Compositions and methods for modulating the effect of TNF and IL-1” (priority 1986, dated 1993):
Numbered stars: 1 amine (or outer) side, 2 acyl side, 3 side chain; on linkers, the order of the positions; unused ones are H or OH. Bridge positions count the residues as written; N and C are the ends. Square brackets hold non-standard residues; d marks the D form. Peptide text beside a SMILES is read from it. I, II: the chains in the order shown. Actinocin(9to1) = Cc1c2oc3c(C)ccc(C(=O)[*:1])c3nc-2c(C(=O)[*:2])c(N)c1=O; NMeV = CN[C@H](C(=O)O)C(C)C; Sar = CNCC(=O)O

Key:
Balb/c mice = assay: Lethality of TNF and IL-1 in mice sensitized with Act-D or GalN; assay type: in vivo, mouse; conditions: i.p., sensitizer injected 10 minutes before TNF or IL-1
Experimental: Nine to thirteen weeks old Balb/c mice were used in all experiments. TNF, IL-1, LPS, actinomycin-D (Act-D) and D-galactosamine (GalN) were solubilized in PBS and injected i.p.; each in aliquots of 0.5 ml. For lethality determination TNF, IL-1 or LPS were administered alone or 10 minutes following injection of Act-D or GalN; for desensitization experiments mice were injected with TNF or IL-1 12 h prior to a challenge consisting of the same regimen as the lethality testing. Following treatments the mice were continuously observed for a period of 72 h in order to determine the time of their death. In all cases, mice that survived 72 h appeared completely normal at that time. […] All experiments were performed in duplicate with qualitatively the same results. Two mice were examined for each experimental point, in each of the experiments. Their actual survival time as well as the average of the survival time of the two mice used for each of the points are presented.
In an attempt to elucidate the nature of the sensitizing effect of Act-D and of GalN, it was tested whether injection of TNF or IL-1 in the absence of these agents affects the response of mice to a subsequent injection of TNF or IL-1 together with Act-D or GalN. […]

[1] = tested on: receptors for TNF on SV-80 cells; assay: Binding of radiolabelled TNF to SV-80 cells, Scatchard plot analysis; assay type: cell-based, human; conditions: Scatchard analysis of 125I-TNF binding
Experimental: (PMA-4-beta-phorbol-12-myristate-13-acetate).
Binding of ^125 I-rTNF (at 3.6 ng/ml), ^125 I-rIL-1 (at 49 ng/ml) and ^125 I-rIFN-gamma (at 13 ng/ml) to the indicated cells was determined at […] as described below. Competition of IL-1 and TNF with each other for binding to their receptors was examined by applying the nonlabelled cytokines, at the indicated concentrations, simultaneously with the labelled proteins to the binding asay. The effect of pretreatment with IL-1 or TNF was examined by applying the proteins on the cells at 37° C. for 4 h prior to application of the labelled cytokines. Human TNF and IFN-gamma were radiolabelled as previously described (30, 44); the first with the chloramine T reagent to specific radioactivity of 42 Ci/g, and the second with the Bolton and Hunter reagent to specific radioactivity of 18 Ci/g. IL-1 was radioiodinated with the chloramine T reagent (31) to specific radioactivity of 40 Ci/g. Recovery of bioactivity following the iodination, as estimated by measuring the protective effect of the protein against the cytotoxicity of TNF (25) was over 95%. […] Specific binding was calculated by subtracting the values of nonspecific binding from the binding observed with the labelled cytokines alone. […]

SV-80 cells = assay: Sensitization of SV-80 cells to the cytolytic effect of TNF, neutral red uptake; assay type: cell-based, human; conditions: for Cell viability upon treatment with TNF (500 U/ml), pretreatment with IL-1 (2 U/ml), OD540 / Cell viability upon treatment with TNF (500 U/ml), pretreatment with IL-1 (2 U/ml), %: 4 h pretreatment with IL-1 2 U/ml; for Cell viability upon treatment with TNF (500 U/ml), pretreatment with IL-1 (2 U/ml), OD540 / Cell viability upon treatment with TNF (500 U/ml), pretreatment with IL-1 (2 U/ml), % / Cell viability upon treatment with TNF (500 U/ml), pretreatment with TNF (20 U/ml), OD540 / Cell viability upon treatment with TNF (500 U/ml), pretreatment with TNF (20 U/ml), %: then TNF 500 U/ml for 12 h with sensitizing agent; for Cell viability upon treatment with TNF (500 U/ml), pretreatment with IL-1 (2 U/ml), % / Cell viability upon treatment with TNF (500 U/ml), pretreatment with TNF (20 U/ml), %: % of sensitizing agent alone; for Cell viability upon treatment with TNF (500 U/ml), pretreatment with TNF (20 U/ml), OD540 / Cell viability upon treatment with TNF (500 U/ml), pretreatment with TNF (20 U/ml), %: 4 h pretreatment with TNF 20 U/ml; for Cell viability in absence of TNF, OD540: 12 h with sensitizing agent alone (cycloheximide 50 μg/ml, emetine 10 μg/ml, actinomycin D 5 μg/ml); for Cell viability upon treatment with TNF (500 U/ml), no pretreatment, OD540: TNF 500 U/ml for 12 h together with sensitizing agent; for Cell viability upon treatment with TNF (500 U/ml), no pretreatment, %: TNF 500 U/ml for 12 h with sensitizing agent, % of viability with sensitizing agent alone
Experimental: Cytolytic and protective (desensitization) activities of the cytokines were determined in all the figures using SV-80 cells which, for measurement of cytolytic activity, were incubated with serial dilutions of the tested cytokine for 12 hours together with 50 μg/ml CHI; for measuring protective activity, they were incubated for 4 hours with the tested cytokine and then for 12 hours with TNF, at the indicated concentrations, together with 50 μg/ml CHI. The extent of cell killing was quantitated by the neutral-red uptake assay. A unit of cytolytic activity is defined as the concentration of the tested cytokine at which the amount of cells remaining viable was 50% of those that remained viable on incubation with CHI alone. A unit of protective activity is defined as that cytokine concentration protecting 50% of the cells from killing by TNF.
IL-1 or TNF provide protection not only against the cytotoxicity mediated in the presence of CHI, but also against killing of cells in which synthesis of proteins has been suppressed by other agents.
SV-80 cells following 4 h pretreatment with IL1 or TNF or without such
pretreatment were tested for their vulnerability to the cytolytic effect
of TNF applied for 12 h together with the indicated sensitizing agents.
Viability of the cells is presented as neutral red uptake (OD540)
and, in cultures with TNF, percentagewise as compared to the viability in
cultures incubated with the sensitizing agent alone.

Row | SMILES | Sensitization of mice to the lethal effect of TNF and IL-1 (Balb/c mice) | Effect on number and affinity of binding sites for TNF [1] | Cell viability upon treatment with TNF (500 U/ml), pretreatment with IL-1 (2 U/ml), OD540 (SV-80 cells) | Cell viability upon treatment with TNF (500 U/ml), pretreatment with IL-1 (2 U/ml), % (SV-80 cells) | Cell viability upon treatment with TNF (500 U/ml), pretreatment with TNF (20 U/ml), OD540 (SV-80 cells) | Cell viability upon treatment with TNF (500 U/ml), pretreatment with TNF (20 U/ml), % (SV-80 cells) | Cell viability in absence of TNF, OD540 (SV-80 cells) | Cell viability upon treatment with TNF (500 U/ml), no pretreatment, OD540 (SV-80 cells) | Cell viability upon treatment with TNF (500 U/ml), no pretreatment, % (SV-80 cells)
1 | N[C@H]1C(O)O[C@H](CO)[C@H](O)[C@@H]1O (stereo partly drawn) [GalN, D-galactosamine] | sensitize mice to the lethal effect of TNF and IL-1 | – | – | – | – | – | – | – | –
2 | CCCCCCCCCCCCCC(=O)OC1C(C)C2(O)C(C=C(CO)CC3(O)C(=O)C(C)=CC32)C2C(C)(C)C12OC(C)=O (stereo not drawn) [PMA, 4-beta-phorbol-12-myristate-13-acetate] | – | affect only the number of binding sites for TNF and not their affinity | – | – | – | – | – | – | –
3 | Cc1c2oc3c(C)ccc(C(=O)N[C@@H]4C(=O)N[C@H](C(C)C)C(=O)N5CCC[C@H]5C(=O)N(C)CC(=O)N(C)[C@@H](C(C)C)C(=O)O[C@@H]4C)c3nc-2c(C(=O)N[C@@H]2C(=O)N[C@H](C(C)C)C(=O)N3CCC[C@H]3C(=O)N(C)CC(=O)N(C)[C@@H](C(C)C)C(=O)O[C@@H]2C)c(N)c1=O [actinomycin D] (I: T[dV]P[Sar][NMeV] / II: T[dV]P[Sar][NMeV]; ester I:1-I:C, II:1-II:C; linker I:N-II:N via Actinocin(9to1)) | sensitize mice to the lethal effect of TNF and IL-1 | – | 0.215 OD540 | 88% | 0.236 OD540 | 97% | 0.243 OD540 | 0.052 OD540 | 21%
4 | C[C@@H]1C[C@@H]([C@H](O)CC2CC(=O)NC(=O)C2)C(=O)[C@@H](C)C1 [cycloheximide] | – | – | 0.163 OD540 | 72% | 0.195 OD540 | 86% | 0.226 OD540 | 0.020 OD540 | 9%
5 | CC[C@H]1CN2CCc3cc(OC)c(OC)cc3[C@@H]2C[C@@H]1C[C@H]1NCCc2cc(OC)c(OC)cc21 [emetine] | – | – | 0.220 OD540 | 84% | 0.234 OD540 | 89% | 0.262 OD540 | 0.029 OD540 | 11%
